Test results as given in patent EP3965790B1, “PENTACYCLIC TRITERPENES IN THE TREATMENT OF VITILIGO” (Pierre Fabre Dermo-Cosmétique, priority 2019, dated 2020).

Columns and labels:
IL-8 [1] = assay: RT-qPCR gene expression in cytokine-stimulated keratinocytes; format: cell-based, humains; conditions: 24 h
CXCL10 = assay: as above; format: cell-based, humains; conditions: 24 h
CCL20 = assay: as above; format: cell-based, humains; conditions: 24 h
S100A7 = assay: as above; format: cell-based, humains; conditions: 24 h
CCL5 = assay: as above; format: cell-based, humains; conditions: 24 h
IL-8 [2] = assay: ELISA of IL-8 release by cytokine-stimulated keratinocytes; format: cell-based, humains; conditions: concentrations as in Tableau 5 (JAK 10 µM; TA, TB 500 ng/ml; Célastrol 100 ng/ml; extrait 1 200 ng/ml; extrait 2 150 ng/ml)
CXCL11 = assay: RT-qPCR gene expression in cytokine-stimulated keratinocytes; format: cell-based, humains; conditions: 24 h
[3] = ORAC (Oxygen Radical Antioxydant Capacity) antioxidant test in tubo; conditions: for Indice ORAC / 100g triterpènes (x 1000): Trolox standard, AAPH, fluorescéine
Description: Le stress oxydatif fait partie des causes possibles de l'apparition du vitiligo. Cette expérience a pour objectif de mesurer l'activité antioxydante de chaque triterpène pentacyclique et des deux extraits, en comparaison avec un témoin positif bien connu, la vitamine C. La méthode in tubo utilisée est celle d'évaluation ORAC (Oxygen Radical Antioxydant Capacity) adaptée de celle décrite par Davalos et al. (J Agric Food Chem 52(1):48-54, 2004). L'indice ORAC permet d'évaluer la capacité anti-oxydante de chaque composé testé dans l'exemple 2. Ce test permet d'évaluer et de classer les différents composés testés suivant leur pouvoir anti-oxydant vis-à-vis des radicaux libres péroxyl. Le AAPH (2,2'-azobis-2-méthyl-propanimidamide, dihydrochloride) est à l'origine de radicaux libres péroxyl. Ce test est utilisé pour mimer la cinétique de dégradation de la fluorescéine par les radicaux libres. Ceci se traduit par une diminution de fluorescence en fonction du temps et de la concentration en actif anti-oxydant présent dans l'extrait testé. L'acide 3,4-dihydro-6-hydroxy-2,5,7,8-tétraméthyl-2H-1-benzopyran-2-carboxylique ou Trolox est utilisé comme standard, il s'agit d'un analogue hydrophile de la vitamine E (anti-oxydant connu). L'ajout de Trolox (gamme de référence) ou d'extrait ou triterpène pentacyclique, protège la fluorescéine de la dégradation. Ceci permet d'évaluer une activité antioxydante mesurée par rapport à une gamme de Trolox.
Toutes les solutions sont réalisées dans du tampon phosphate 75 mM, pH à 7,6. La fluorescéine est à 1,17 µM (solution mère […]). AAPH à 125 mM est préparé extemporanément, Trolox à 1 mM. Dans une plaque de 96 puits noir, il est déposé 20 µl d'antioxydant (gamme Trolox ou composé à tester), 160 µl de fluorescéine à 1,17 µM. la plaque est recouverte d'un film, puis est incubée pendant 15 minutes à 37°C. la solution de AAPH est ajoutée manuellement et le plus rapidement possible à raison de 20 µl par puits. La plaque est alors incubée immédiatement à 37°C dans un spectrofluorimètre (SpectraMax). Une lecture est enregistrée toutes les minutes pendant 90 minutes. La longueur d'onde d'excitation est de 485 nm et la longueur d'onde d'émission est de 520 nm. Chaque essai est réalisé en triplicata.
Les aires sous la courbe (AUC) pour chacun des essais sont calculées. Les AUC nets sont déterminées de la façon suivante : AUC net = AUC point de gamme ou échantillon−AUC blanc. [formula]
La droite d'étalonnage est établie, la concentration en Trolox (µM) en fonction de l'AUC net. L'équation de la droite est utilisée pour déterminer un équivalent en Trolox (µM) pour chacun des échantillons dosés.
Eq Trolox en µM = a x (AUC net)2 + b x (AUC net), a et b sont déterminés par l'équation de la droite.
Pour être dosés, les échantillons sont dilués, de sorte que les valeurs mesurées soient comprises dans la gamme étalon utilisée pour le dosage. L'acide ascorbique (vitamine C) est utilisé comme référence.
L'indice ORAC correspond à des […] de Trolox / 100g de matières.
Les résultats ci-dessous ont été calculés pour 100g d'extrait en Triterpènes, Tingénine A, Tingénine B et célastrol, soit le calcul : [formula]

IL-23A = assay: RT-qPCR gene expression in cytokine-stimulated keratinocytes; format: cell-based, humains; conditions: 24 h
CXCL16 = assay: as above; format: cell-based, humains; conditions: 24 h
DEFB4A = assay: as above; format: cell-based, humains; conditions: 24 h
MMP-9 [4] = assay: ELISA of MMP-9 release by cytokine-stimulated keratinocytes; format: cell-based, humains; conditions: for Libération de MMP-9 (pg/ml) ± sem: stimulated keratinocytes, 48 h, supernatant; for effet sur la libération de MMP-9 (in words): concentrations as in Tableau 5 (JAK 10 µM; TA, TB 500 ng/ml; Célastrol 100 ng/ml; extrait 1 200 ng/ml; extrait 2 150 ng/ml)
MMP-9 [5] = assay: RT-qPCR gene expression in cytokine-stimulated keratinocytes; format: cell-based, humains; conditions: 24 h
[6] = 45 ng/ml, stimulated keratinocytes
[7] = 135 ng/ml, stimulated keratinocytes
[8] = 405 ng/ml, stimulated keratinocytes
[9] = 10µM, stimulated keratinocytes (IL-17, Oncostatin M, TNFα 3ng/ml)

Compound	% Stimulation / Gènes témoins, IL-8 (IL-8 [1]; [6]) [%]	% Stimulation / Gènes témoins, IL-8 (IL-8 [1]; [7]) [%]	% Stimulation / Gènes témoins, IL-8 (IL-8 [1]; [8]) [%]	% Stimulation / Gènes témoins, CXCL10 (CXCL10; [6]) [%]	% Stimulation / Gènes témoins, CXCL10 (CXCL10; [7]) [%]	% Stimulation / Gènes témoins, CXCL10 (CXCL10; [8]) [%]	% Stimulation / Gènes témoins, CCL20 (CCL20; [6]) [%]	% Stimulation / Gènes témoins, CCL20 (CCL20; [7]) [%]	% Stimulation / Gènes témoins, CCL20 (CCL20; [8]) [%]	% Stimulation / Gènes témoins, S100A7 (S100A7; [6]) [%]	% Stimulation / Gènes témoins, S100A7 (S100A7; [7]) [%]	% Stimulation / Gènes témoins, S100A7 (S100A7; [8]) [%]	% Stimulation / Gènes témoins, CCL5 (CCL5; [6]) [%]	% Stimulation / Gènes témoins, CCL5 (CCL5; [7]) [%]	% Stimulation / Gènes témoins, CCL5 (CCL5; [8]) [%]	effet sur la libération d'IL-8 (in words) (IL-8 [2])	% Stimulation / Gènes témoins, CXCL11 (CXCL11; [6]) [%]	% Stimulation / Gènes témoins, CXCL11 (CXCL11; [7]) [%]	% Stimulation / Gènes témoins, CXCL11 (CXCL11; [8]) [%]	effet sur la libération de MMP-9 (in words) (MMP-9 [4])	further results
CC1=C(O)C(=O)C=C2C1=CC=C1[C@@]2(C)CC[C@@]2(C)C3C[C@@H](C)C(=O)C[C@]3(C)CC[C@]12C (some centres unmarked) [Tingénine A]	113	125	53	108	80	31	112	124	80	91	91	70	92	64	19	effet inhibiteur	107	85	23	effet inhibiteur	Indice ORAC / 100g triterpènes (x 1000) ([3]; 0,75 µg/ml): 33 960 / 100g triterpènes (x 1000); pouvoir anti-oxydant compared with vitamine C (in words) ([3]; comparison of ORAC indices of Tableau 6): inférieur; % Stimulation / Gènes témoins, IL-23A (IL-23A; [6]): 123%; % Stimulation / Gènes témoins, IL-23A (IL-23A; [7]): 102%; % Stimulation / Gènes témoins, IL-23A (IL-23A; [8]): 55%; % Stimulation / Gènes témoins, CXCL16 (CXCL16; [6]): 116%; % Stimulation / Gènes témoins, CXCL16 (CXCL16; [7]): 93%; % Stimulation / Gènes témoins, CXCL16 (CXCL16; [8]): 50%; % Stimulation / Gènes témoins, DEFB4A (DEFB4A; [6]): 81%; % Stimulation / Gènes témoins, DEFB4A (DEFB4A; [7]): 63%; % Stimulation / Gènes témoins, DEFB4A (DEFB4A; [8]): 22%; Libération de MMP-9 (pg/ml) ± sem (MMP-9 [4]; 500 ng/ml): 787 ± 105 pg/mL; % Stimulation / Gènes témoins, MMP-9 (MMP-9 [5]; [6]): 98%; % Stimulation / Gènes témoins, MMP-9 (MMP-9 [5]; [7]): 93%; % Stimulation / Gènes témoins, MMP-9 (MMP-9 [5]; [8]): 34%
Tingénine B	96	70	44	93	83	30	105	85	82	76	63	57	68	55	19	effet inhibiteur	78	57	27	effet inhibiteur	Indice ORAC / 100g triterpènes (x 1000) ([3]; 7,5 µg/ml): 124 320 / 100g triterpènes (x 1000); % Stimulation / Gènes témoins, IL-23A (IL-23A; [6]): 80%; % Stimulation / Gènes témoins, IL-23A (IL-23A; [7]): 72%; % Stimulation / Gènes témoins, IL-23A (IL-23A; [8]): 34%; % Stimulation / Gènes témoins, CXCL16 (CXCL16; [6]): 83%; % Stimulation / Gènes témoins, CXCL16 (CXCL16; [7]): 77%; % Stimulation / Gènes témoins, CXCL16 (CXCL16; [8]): 54%; % Stimulation / Gènes témoins, DEFB4A (DEFB4A; [6]): 67%; % Stimulation / Gènes témoins, DEFB4A (DEFB4A; [7]): 48%; % Stimulation / Gènes témoins, DEFB4A (DEFB4A; [8]): 16%; Libération de MMP-9 (pg/ml) ± sem (MMP-9 [4]; 500 ng/ml): 828 ± 31 pg/mL; % Stimulation / Gènes témoins, MMP-9 (MMP-9 [5]; [6]): 88%; % Stimulation / Gènes témoins, MMP-9 (MMP-9 [5]; [7]): 63%; % Stimulation / Gènes témoins, MMP-9 (MMP-9 [5]; [8]): 32%
CC(C)(C)c1nc2c3cc[nH]c(=O)c3c3cc(F)ccc3c2[nH]1 [Inhibiteur JAK, reference compound]	–	–	–	–	–	–	–	–	–	–	–	–	–	–	–	inhibe fortement et statistiquement	–	–	–	inhibe fortement et statistiquement	% Stimulation / Gènes témoins, IL-8 (IL-8 [1]; [9]): 18%; % Stimulation / Gènes témoins, CXCL10 (CXCL10; [9]): 38%; % Stimulation / Gènes témoins, CCL20 (CCL20; [9]): 292%; % Stimulation / Gènes témoins, S100A7 (S100A7; [9]): 25%; % Stimulation / Gènes témoins, CCL5 (CCL5; [9]): 16%; % Stimulation / Gènes témoins, CXCL11 (CXCL11; [9]): 14%; % Stimulation / Gènes témoins, IL-23A (IL-23A; [9]): 67%; % Stimulation / Gènes témoins, CXCL16 (CXCL16; [9]): 76%; % Stimulation / Gènes témoins, DEFB4A (DEFB4A; [9]): 7%; Libération de MMP-9 (pg/ml) ± sem (MMP-9 [4]; 10 µM): 389 ± 18 pg/mL; % Stimulation / Gènes témoins, MMP-9 (MMP-9 [5]; [9]): 40%
O=C1O[C@H]([C@@H](O)CO)C(O)=C1O [Vitamine C, acide ascorbique, reference compound]	–	–	–	–	–	–	–	–	–	–	–	–	–	–	–	–	–	–	–	–	Indice ORAC / 100g triterpènes (x 1000) ([3]; 3 µg/ml): 69 813 / 100g triterpènes (x 1000)
